# According to patent publication US20260315492A1, “5,6-FUSED BICYCLIC AMIDES AND COMPOSITIONS FOR USE AS 15-PROSTAGLANDIN DEHYDROGENASE MODULATORS” (AMGEN INC., priority 2023, published 2026):
# pIC50: −log10 of the molar value.
# Molecular target: T1, human recombinant 15-PGDH (Homo sapiens, UniProt P15428)
# T1 sequence (P15428 1-266): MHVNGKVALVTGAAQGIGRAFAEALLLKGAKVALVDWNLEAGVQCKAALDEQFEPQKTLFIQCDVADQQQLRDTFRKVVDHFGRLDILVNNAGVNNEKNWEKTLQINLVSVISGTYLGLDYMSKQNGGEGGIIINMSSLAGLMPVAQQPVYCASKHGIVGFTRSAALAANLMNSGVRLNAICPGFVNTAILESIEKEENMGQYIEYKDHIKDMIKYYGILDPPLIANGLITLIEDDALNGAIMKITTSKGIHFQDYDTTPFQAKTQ
# Experiment: Inhibition of recombinant 15-PGDH enzymatic activity (NADH quantification after addition of PGE2 and NAD+)
# Type: biochemical
# Settings: recombinant 15-PGDH; 15 min pre-incubation, 60-minute reaction, room temperature, pH 7.5; PGE2 and NAD+; read-out: PGDH-Lumi IC50
# In short: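 Human recombinant 15-PGDH in 50 mM Tris pH 7.5, 0.01% Tween-20, 100 μM DTT, pre-incubated 15 min at room temperature with 22-point 2-fold compound dilutions. Reaction started with PGE2 and β-NAD+, run 60 min at room temperature, quenched. NADH signal read as activity; IC50 from concentration-response.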
row,pIC50,Compound
1,4.84,"O=C(c1nc2ccc(N3CCOCC3)nc2s1)N1CCOCC1 [Compound C50, 4-morpholinyl(5-(4-morpholinyl)[1,3]thiazolo[5,4-b]pyridin-2-yl)methanone]"
2,7.75,"Cn1cc2cc(-c3ccc4nc(C(=O)N5CCOCC5)sc4n3)cnc2n1 [Compound C51, (5-(2-methyl-2H-pyrazolo[3,4-b]pyridin-5-yl)[1,3]thiazolo[5,4-b]pyridin-2-yl)(4-morpholinyl)methanone]"
3,7.77,"C[C@@H]1COCCN1C(=O)c1nc2ccc(-c3cnc4nn(C)cc4c3)nc2s1 [Compound C52R, ((3R)-3-methyl-4-morpholinyl)(5-(2-methyl-2H-pyrazolo[3,4-b]pyridin-5-yl)[1,3]thiazolo[5,4-b]pyridin-2-yl)methanone]"
4,7.59,"C[C@H]1COCCN1C(=O)c1nc2ccc(-c3cnc4nn(C)cc4c3)nc2s1 [Compound C52S, ((3S)-3-methyl-4-morpholinyl)(5-(2-methyl-2H-pyrazolo[3,4-b]pyridin-5-yl)[1,3]thiazolo[5,4-b]pyridin-2-yl)methanone]"
